# Laboratory results: US6683183B2, “Pyridotriazines and pyridopyridazines” (Warner-Lambert Company, priority 2000, dated 2004)
# Assays:
# [1] = biological target: T1, FGFR-1 (Homo sapiens, UniProt P11362); test: FGFR tyrosine kinase inhibition (DELFIA); type: biochemical; settings: kinase domain at 20 nM
# T1 construct: The kinase domains from FGFR-1, VEGFR-2, Lck, and PDGF were purified from baculoviral vectors expression systems; made in house; host or cells: baculovirus expression system (insect cells)
# T1 sequence (P11362 478-767 limits assumed): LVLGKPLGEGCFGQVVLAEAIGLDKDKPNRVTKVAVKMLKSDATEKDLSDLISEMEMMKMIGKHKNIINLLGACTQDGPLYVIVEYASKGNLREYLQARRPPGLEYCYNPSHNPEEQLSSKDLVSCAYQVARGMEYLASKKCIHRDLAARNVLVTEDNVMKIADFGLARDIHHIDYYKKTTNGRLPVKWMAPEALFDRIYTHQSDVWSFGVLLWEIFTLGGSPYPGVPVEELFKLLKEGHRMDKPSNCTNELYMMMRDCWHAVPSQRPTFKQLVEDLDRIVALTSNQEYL
# Description: (§1) Full-length cDNAs for the mouse PDGF-β and human FGF-1 (flg) receptor tyrosine kinases were obtained from J. Escobedo and prepared as described in J. Biol. Chem., 1991;262:1482-1487. PCR primers were designed to amplify a fragment of DNA that codes for the intracellular tyrosine kinase domain. The fragment was inserted into a baculovirus vector, cotransfected with AcMNPV DNA, and the recombinant virus isolated. SF9 insect cells were infected with the virus to overexpress the protein, and the cell lysate was used for the assay. […] Filters were washed three times with 15% TCA containing 100 mM sodium pyrophosphate, and the radioactivity retained on the filters counted in a Wallac 1250 Betaplate reader. Nonspecific activity was defined as radioactivity retained on the filters following incubation of samples with buffer alone (no enzyme). […]
# (§2) The inhibition activity of the compounds in Examples 7 and 8 were also evaluated using the Dissociated Enhanced Lanthanide Fluoroimmuno Assay (DELFIA) (Frank Loganzo and Carolyn Harady. A sensitive, time-resolved fluorometric assay for the detection of inhibitors of phosphotyrosine kinases. American Biotechnology Laboratory, December 1998). […] One hundred microliter DELFIA Enhancement Solution (EG&G Wallac) was added and time-resolved fluorescence of the reactions determined using a VICTOR2 1420 multilable counter (EG&G Wallac). […]
# [2] = biological target: T2, PDGF (Mus musculus, UniProt P05622); test: PDGF receptor tyrosine kinase inhibition (DELFIA); type: biochemical; settings: kinase domain at 20 nM
# T2 construct: The kinase domains from FGFR-1, VEGFR-2, Lck, and PDGF were purified from baculoviral vectors expression systems; made in house; host or cells: baculovirus expression system (insect cells)
# T2 sequence (P05622 599-961 limits assumed): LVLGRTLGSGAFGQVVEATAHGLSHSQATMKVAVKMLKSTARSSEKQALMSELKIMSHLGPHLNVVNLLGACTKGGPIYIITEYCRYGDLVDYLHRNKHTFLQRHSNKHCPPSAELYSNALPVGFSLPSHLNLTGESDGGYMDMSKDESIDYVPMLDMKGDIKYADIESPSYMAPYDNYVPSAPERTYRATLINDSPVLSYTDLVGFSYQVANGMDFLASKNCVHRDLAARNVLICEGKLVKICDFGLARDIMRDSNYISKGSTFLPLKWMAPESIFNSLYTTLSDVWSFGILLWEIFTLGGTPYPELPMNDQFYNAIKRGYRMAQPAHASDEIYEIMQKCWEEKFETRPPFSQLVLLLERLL
# Description: as §1, §2
# [3] = biological target: T3, c-Src (Homo sapiens, UniProt P12931); test: c-Src kinase inhibition (DELFIA); type: biochemical; settings: c-Src at 3 units per reaction
# T3 construct: purchased Upstate Biotechnology, Lake Placid, N.Y
# T3 sequence (P12931 whole entry, species assumed): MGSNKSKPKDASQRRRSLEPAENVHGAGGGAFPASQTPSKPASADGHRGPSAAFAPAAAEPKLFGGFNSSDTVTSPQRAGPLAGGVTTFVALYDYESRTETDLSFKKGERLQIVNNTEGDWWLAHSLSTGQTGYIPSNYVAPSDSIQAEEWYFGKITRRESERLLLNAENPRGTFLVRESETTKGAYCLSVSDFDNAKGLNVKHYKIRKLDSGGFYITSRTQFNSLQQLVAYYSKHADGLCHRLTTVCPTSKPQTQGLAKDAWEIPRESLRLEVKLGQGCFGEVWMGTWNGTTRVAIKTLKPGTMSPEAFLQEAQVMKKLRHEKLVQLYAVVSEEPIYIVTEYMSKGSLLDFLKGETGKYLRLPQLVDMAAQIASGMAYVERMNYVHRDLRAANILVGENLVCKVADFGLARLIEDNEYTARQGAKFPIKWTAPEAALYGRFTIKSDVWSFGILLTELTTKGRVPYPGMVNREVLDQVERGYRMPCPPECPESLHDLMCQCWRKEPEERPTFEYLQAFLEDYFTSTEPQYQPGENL
# Experimental: c-Src kinase is purified from baculovirus infected insect cell lysates using an antipeptide monoclonal antibody directed against the N-terminal amino acids (amino acids 2-17) of c-Src. The antibody, covalently linked to 0.65 μm latex beads, is added to a suspension of insect cell lysis buffer comprised of 150 mM NaCl, 50 mM Tris pH 7.5, 1 mM DTT, 1% NP-40, 2 mM EGTA, 1 mM sodium vanadate, 1 mM PMSF, 1 μg/mL each of leupeptin, pepstatin, and aprotinin. Insect cell lysate containing c-Src protein is incubated with these beads for 3 to 4 hours at 4° C. with rotation. […] The filters are then punched, counted in a liquid scintillation counter, and the data examined for inhibitory activity in comparison to a known inhibitor such as erbstatin. […]
# as §2
# [4] = biological target: T4, Lck (Homo sapiens, UniProt P06239); test: Lck kinase inhibition (DELFIA); type: biochemical; settings: kinase domain at 20 nM
# T4 construct: The kinase domains from FGFR-1, VEGFR-2, Lck, and PDGF were purified from baculoviral vectors expression systems; made in house; host or cells: baculovirus expression system (insect cells)
# T4 sequence (P06239 245-498 limits assumed, species assumed): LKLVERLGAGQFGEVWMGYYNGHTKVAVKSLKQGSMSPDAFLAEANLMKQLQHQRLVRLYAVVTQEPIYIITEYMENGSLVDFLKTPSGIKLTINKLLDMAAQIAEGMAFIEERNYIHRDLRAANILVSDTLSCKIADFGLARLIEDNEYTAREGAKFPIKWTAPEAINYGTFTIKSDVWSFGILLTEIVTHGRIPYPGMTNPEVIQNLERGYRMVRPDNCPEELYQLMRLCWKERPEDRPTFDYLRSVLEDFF
# Experimental: (§3) The inhibition activity of the compounds in Examples 7 and 8 were also evaluated using the Dissociated Enhanced Lanthanide Fluoroimmuno Assay (DELFIA) (Frank Loganzo and Carolyn Harady. A sensitive, time-resolved fluorometric assay for the detection of inhibitors of phosphotyrosine kinases. American Biotechnology Laboratory, December 1998). DELFIA plates (EG&G Wallac, Gaithersburg, Md.) were coated overnight with Poly Glu Tyr (4:1) (Sigma, St. Louis, Mo.) overnight at room temperature, washed (DELFIA wash reagent, EG&G Wallac), and spotted with 1 μL inhibitor dilution or DMSO carrier control per well. In some cases, kinase was autophosphorylated prior to analysis by incubating 45 minutes at 4° C. in the presence of 4 mM ATP and 25 mM MgCl2. A typical 100 μL kinase assay reaction contained 20 mM Tris (pH 7.5), 20 mM MgCl2, 50 mM NaCl, 5 mM DTT, 200 μM ATP, and protease inhibitors (Mini EDTA-free protease inhibitor cocktail tablets, Boehringer Mannheim, Indianapolis, Ind.), 40 μM ATP, and an appropriate concentration of inhibitor. The reaction was allowed to continue for 30 minutes at room temperature. […] One hundred microliter DELFIA Enhancement Solution (EG&G Wallac) was added and time-resolved fluorescence of the reactions determined using a VICTOR2 1420 multilable counter (EG&G Wallac). […]
# [5] = biological target: T5, VEGFR-2 (Homo sapiens, UniProt P35968); test: VEGFR-2 tyrosine kinase inhibition (DELFIA); type: biochemical; settings: kinase domain at 20 nM; read-out: (VEGF-2) (IC50 = μM)
# T5 construct: The kinase domains from FGFR-1, VEGFR-2, Lck, and PDGF were purified from baculoviral vectors expression systems; made in house; host or cells: baculovirus expression system (insect cells)
# T5 sequence (P35968 834-1162 limits assumed, species assumed): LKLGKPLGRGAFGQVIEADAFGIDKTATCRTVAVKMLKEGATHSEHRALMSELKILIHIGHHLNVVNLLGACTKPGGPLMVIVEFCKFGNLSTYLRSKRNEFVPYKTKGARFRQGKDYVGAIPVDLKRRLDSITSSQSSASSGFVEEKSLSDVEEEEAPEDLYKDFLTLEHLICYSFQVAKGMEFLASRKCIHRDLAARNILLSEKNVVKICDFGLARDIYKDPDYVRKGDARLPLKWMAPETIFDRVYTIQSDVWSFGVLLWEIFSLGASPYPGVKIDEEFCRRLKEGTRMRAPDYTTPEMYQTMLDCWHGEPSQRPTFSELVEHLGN
# Experimental: as §3
smiles,measurement,setting,value
"CCN(CC)CCCCNc1nnc2cc(-c3cc(OC)cc(OC)c3)c(=O)n(CC)c2n1 [Example 7, 3-(4-Diethylamino-butylamino)-7-(3,5-dimethoxy-phenyl)-5-ethyl-5H-pyrido[2,3-e]-1,2,4-triazin-6-one]",IC50,[1],6.04 µM
same,IC50,[2],> 50 µM
same,melting point,,120 to 121 °C (dec.)
same,IC50,[3],10.6 µM
"CCn1c(=O)c(-c2cc(OC)cc(OC)c2)cc2nnc(Nc3ccncc3)nc21 [Example 8, 7-(3,5-Dimethoxy-phenyl)-5-ethyl-3-(pyridin-4-ylamino)-5H-pyrido[2,3-e]-1,2,4-triazin-6-one]",IC50,[1],1.22 µM
same,IC50,[2],> 50 µM
same,IC50,[3],> 4 µM
same,Ki,[4],> 4 µM
same,IC50,[5],0.35 µM
